The subject of experiment [1] is HCT-116. In words: Cell cycle arrest in human HCT116 cells assessed as accumulation at G2/M phase at 40 uM after 24 hrs by propidium iodide staining-based flow cytometric analysis (reference value: 23.75%). The format is functional.
The test system of experiment [2] is HCT-116. As to the kind of experiment: Cell cycle arrest in human HCT116 cells assessed as accumulation at G0/G1 phase at 20 uM after 24 hrs by propidium iodide staining-based flow cytometric analysis (reference value: 37.89%). It is filed as functional. In general terms: A flow cytometer gives signals particle by particle.
Experiment [3] concerns HCT-116. As to the kind of experiment: Cytotoxicity against human HCT116 cells assessed as inhibition of colony formation after 2 weeks by crystal violet staining assay. It is filed as functional, cell-based.
In experiment [4] the test system is HT-29. As to the kind of experiment: Induction of apoptosis in human HT-29 cells assessed as upregulation of Bak expression after 24 hrs by Western blot analysis. The format is functional, cell-based.
The test system of experiment [5] is HT-29. In words: Cell cycle arrest in human HT-29 cells assessed as accumulation at G0/G1 phase at 60 uM after 24 hrs by propidium iodide staining-based flow cytometric analysis (reference value: 33.61%). It is filed as functional.
Experiment [6] deals with HCT-116. As to the kind of experiment: Induction of apoptosis in human HCT116 cells assessed as upregulation of Bak expression after 24 hrs by Western blot analysis. It is filed as functional, cell-based. In general terms: In western blotting, separated proteins are transferred to a membrane and probed.
Experiment [7] deals with HT-29. As to the kind of experiment: Cell cycle arrest in human HT-29 cells assessed as accumulation at G2/M phase at 20 uM after 24 hrs by propidium iodide staining-based flow cytometric analysis (reference value: 31.81%). It is filed as functional.
Experiment [8] relates to HCT-116. In words: Cell cycle arrest in human HCT116 cells assessed as accumulation at S phase at 20 uM after 24 hrs by propidium iodide staining-based flow cytometric analysis (reference value: 34.85%). It is filed as functional.
For experiment [9], the system named is HCT-116. In words: Induction of apoptosis in human HCT116 cells assessed as upregulation of cytochrome C expression at 20 to 60 uM after 24 hrs by Western blot analysis. The format is functional, cell-based.
Experiment [10] relates to HCT-116. As to the kind of experiment: Cell cycle arrest in human HCT116 cells assessed as accumulation at S phase at 60 uM after 24 hrs by propidium iodide staining-based flow cytometric analysis (reference value: 34.85%). It is filed as functional.
Experiment [11] deals with HCT-116. In words: Induction of apoptosis in human HCT116 cells assessed as upregulation of cleaved caspase 3 expression at 20 to 60 uM after 24 hrs by Western blot analysis. It is filed as functional, cell-based.
The subject of experiment [12] is HCT-116. In words: Cell cycle arrest in human HCT116 cells assessed as downregulation of cyclin E expression after 24 hrs by Western blot analysis. It is filed as functional, cell-based.
Experiment [13] relates to HT-29. As to the kind of experiment: Cell cycle arrest in human HT-29 cells assessed as accumulation at G1 phase after 24 hrs by propidium iodide staining-based flow cytometric analysis. The format is functional.
In experiment [14] the test system is HT-29. As to the kind of experiment: Cell cycle arrest in human HT-29 cells assessed as downregulation of cyclin E expression after 24 hrs by Western blot analysis. It is filed as functional, cell-based.
Experiment [15] deals with HT-29. In words: Induction of apoptosis in human HT-29 cells after 24 hrs by propidium iodide staining-based flow cytometric analysis. It is filed as functional, cell-based.
Experiment [16] concerns HT-29. In words: Induction of apoptosis in human HT-29 cells assessed as upregulation of Bax expression after 24 hrs by Western blot analysis. The format is functional, cell-based.

Among the data in ChEMBL document CHEMBL3600339, “Novel Resveratrol-Based Aspirin Prodrugs: Synthesis, Metabolism, and Anticancer Activity” (J Med Chem, 2015) are Activity and inhibition values, retold here.

Calls of active or inactive are those of the source. No cut-off for these calls is given here.

As for `CC(=O)Oc1ccccc1C(=O)Oc1ccc(/C=C/c2cc(O)cc(O)c2)cc1`, the Activity with HCT-116 [1] is 11.03%; in the experiment with HCT-116 [2], 48.4%; in the experiment on HT-29 [4] it was “Dose-dependent effect”; in the experiment on HT-29 [5], 41.33%; with HCT-116 [6], “Dose-dependent effect”; in the experiment with HT-29 [7], 24.31%. The Activity is 35.12% with HCT-116 [8]; 31.75% in the experiment with HCT-116 [10]; “Dose-dependent effect” in the experiment on HCT-116 [12]; “Dose-dependent effect” in the experiment on HT-29 [13]; “Dose-dependent effect” in the experiment on HT-29 [14]; “Dose-dependent effect” in the experiment with HT-29 [15]. Also, the Activity result in the experiment on HT-29 [16] is “Dose-dependent effect”. Further, the inhibition result in the experiment with HCT-116 [3] was “Dose-dependent effect”. Moreover, the result in the experiment on HCT-116 [9] and in the experiment with HCT-116 [11] was Active.
